Measurements as given in ChEMBL document CHEMBL1147594, “Evaluation of loxoprofen and its alcohol metabolites for potency and selectivity of inhibition of cyclooxygenase-2” (Bioorg Med Chem Lett, 2004).
pIC50: −log10 of the molar value.

Assays:
[1] = target: T1, Prostaglandin G/H synthase 1 (Homo sapiens, UniProt P23219); experiment: Inhibitory activity against recombinant human prostaglandin G/H synthase 1
[2] = target: T1, Prostaglandin G/H synthase 1
Description: Inhibitory potency against Prostaglandin G/H synthase 1 in human whole blood assay

[3] = target: T2, Prostaglandin G/H synthase 2 (Homo sapiens, UniProt P35354)
T2 sequence (P35354 whole entry): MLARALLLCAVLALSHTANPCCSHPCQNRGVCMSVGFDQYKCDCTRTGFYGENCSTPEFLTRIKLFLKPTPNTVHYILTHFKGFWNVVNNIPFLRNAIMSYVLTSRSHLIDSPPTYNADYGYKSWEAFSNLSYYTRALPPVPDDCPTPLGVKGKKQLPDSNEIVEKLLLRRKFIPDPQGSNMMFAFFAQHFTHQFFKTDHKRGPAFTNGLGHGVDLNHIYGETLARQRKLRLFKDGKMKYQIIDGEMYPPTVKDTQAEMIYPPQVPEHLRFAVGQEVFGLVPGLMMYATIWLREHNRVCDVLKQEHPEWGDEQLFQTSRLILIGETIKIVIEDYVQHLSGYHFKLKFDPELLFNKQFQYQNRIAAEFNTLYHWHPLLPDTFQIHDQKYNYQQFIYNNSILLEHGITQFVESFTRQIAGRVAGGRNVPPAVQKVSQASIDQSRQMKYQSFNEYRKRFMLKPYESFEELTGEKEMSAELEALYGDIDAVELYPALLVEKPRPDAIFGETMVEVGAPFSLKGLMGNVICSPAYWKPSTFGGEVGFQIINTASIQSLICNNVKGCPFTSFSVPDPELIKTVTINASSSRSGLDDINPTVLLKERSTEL
Description: Inhibitory activity against recombinant human Prostaglandin G/H synthase 2

[4] = target: T2, Prostaglandin G/H synthase 2; remark: listed apart in the source
Description: Inhibitory potency against cyclooxygenase-2 in human whole blood assay

T1 sequence (P23219 whole entry): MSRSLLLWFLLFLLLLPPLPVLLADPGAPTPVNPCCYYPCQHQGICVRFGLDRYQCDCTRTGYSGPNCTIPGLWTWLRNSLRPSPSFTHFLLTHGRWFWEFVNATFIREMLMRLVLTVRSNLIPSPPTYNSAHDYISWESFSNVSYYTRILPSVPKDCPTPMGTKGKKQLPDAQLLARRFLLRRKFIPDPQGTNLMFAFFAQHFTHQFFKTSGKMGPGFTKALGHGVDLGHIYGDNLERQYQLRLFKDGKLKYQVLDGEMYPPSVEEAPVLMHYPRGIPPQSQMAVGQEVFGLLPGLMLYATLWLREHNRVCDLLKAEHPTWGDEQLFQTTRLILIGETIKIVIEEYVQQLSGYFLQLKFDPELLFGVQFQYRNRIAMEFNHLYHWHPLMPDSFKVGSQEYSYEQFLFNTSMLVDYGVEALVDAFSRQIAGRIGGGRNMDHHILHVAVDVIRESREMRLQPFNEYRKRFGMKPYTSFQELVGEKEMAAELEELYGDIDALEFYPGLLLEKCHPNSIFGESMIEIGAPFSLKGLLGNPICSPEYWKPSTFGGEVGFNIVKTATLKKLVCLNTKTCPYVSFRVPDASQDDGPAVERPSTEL

pIC50 [1] | pIC50 [2] | pIC50 [3] | pIC50 [4] | SMILES
< 4.00 | 4.82 | 6.64 | 6.32 | CS(=O)(=O)c1ccc(C2=C(c3ccc(F)c(F)c3)C(=O)OC2)cc1
< 4.00 | 5.19 | < 4.00 | 4.87 | CC(C(=O)O)c1ccc(CC2CCCC2=O)cc1 (stereo not drawn) [LOXOPROFEN]
